The target in assay [1] is T1, 3-hydroxy-3-methylglutaryl-coenzyme A reductase (Homo sapiens, UniProt P04035).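 Note: enzyme inhibition assay of HMG-CoA reductase using radiolabeled [14C]HMG-CoA as substrate; in other assays of this panel Not Active means under 50% inhibition at 10 µM.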
T1 sequence (P04035 whole entry): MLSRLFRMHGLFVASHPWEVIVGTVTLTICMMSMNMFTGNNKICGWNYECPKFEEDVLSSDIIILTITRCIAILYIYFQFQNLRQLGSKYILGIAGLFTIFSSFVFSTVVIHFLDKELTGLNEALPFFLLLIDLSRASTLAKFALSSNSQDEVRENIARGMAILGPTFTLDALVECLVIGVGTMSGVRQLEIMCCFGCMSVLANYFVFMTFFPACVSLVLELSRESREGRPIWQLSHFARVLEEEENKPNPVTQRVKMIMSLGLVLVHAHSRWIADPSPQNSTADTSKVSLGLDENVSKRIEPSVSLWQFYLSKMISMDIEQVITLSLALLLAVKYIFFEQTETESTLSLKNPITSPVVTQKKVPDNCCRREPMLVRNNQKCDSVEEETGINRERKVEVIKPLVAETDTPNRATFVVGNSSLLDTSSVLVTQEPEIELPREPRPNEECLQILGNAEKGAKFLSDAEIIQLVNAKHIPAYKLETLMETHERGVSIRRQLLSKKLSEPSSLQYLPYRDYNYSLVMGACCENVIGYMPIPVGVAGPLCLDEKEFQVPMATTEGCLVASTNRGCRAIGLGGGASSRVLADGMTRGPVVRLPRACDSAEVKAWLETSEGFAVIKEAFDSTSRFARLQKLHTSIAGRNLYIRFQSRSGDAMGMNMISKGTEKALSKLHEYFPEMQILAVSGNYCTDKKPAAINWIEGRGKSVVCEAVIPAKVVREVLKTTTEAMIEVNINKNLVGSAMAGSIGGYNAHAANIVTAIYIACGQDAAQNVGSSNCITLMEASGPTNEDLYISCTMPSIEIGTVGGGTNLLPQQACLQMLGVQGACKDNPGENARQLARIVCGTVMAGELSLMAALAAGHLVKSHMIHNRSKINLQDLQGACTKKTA
Further details: species or system Escherichia coli.

Assay [2] concerns the target T2, Type-2 angiotensin II receptor (Homo sapiens, UniProt P50052). Note: in other assays of this panel Not Active means under 50% inhibition at 10 µM.
T2 sequence (P50052 whole entry): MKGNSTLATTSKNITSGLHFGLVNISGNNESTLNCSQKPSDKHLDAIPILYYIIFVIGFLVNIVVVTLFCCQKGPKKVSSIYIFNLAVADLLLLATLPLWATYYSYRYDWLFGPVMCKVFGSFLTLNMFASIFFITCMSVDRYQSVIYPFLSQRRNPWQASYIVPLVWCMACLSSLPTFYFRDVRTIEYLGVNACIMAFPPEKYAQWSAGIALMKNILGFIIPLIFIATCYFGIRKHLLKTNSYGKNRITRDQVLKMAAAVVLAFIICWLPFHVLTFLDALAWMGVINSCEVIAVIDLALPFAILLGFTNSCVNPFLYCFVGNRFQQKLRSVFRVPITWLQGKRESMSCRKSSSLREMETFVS
It counts as cell-based. The note with it: cho-k1.

Assay [3] concerns the target T3, Alpha-1A adrenergic receptor (Rattus norvegicus, UniProt P43140).
T3 sequence (P43140 whole entry): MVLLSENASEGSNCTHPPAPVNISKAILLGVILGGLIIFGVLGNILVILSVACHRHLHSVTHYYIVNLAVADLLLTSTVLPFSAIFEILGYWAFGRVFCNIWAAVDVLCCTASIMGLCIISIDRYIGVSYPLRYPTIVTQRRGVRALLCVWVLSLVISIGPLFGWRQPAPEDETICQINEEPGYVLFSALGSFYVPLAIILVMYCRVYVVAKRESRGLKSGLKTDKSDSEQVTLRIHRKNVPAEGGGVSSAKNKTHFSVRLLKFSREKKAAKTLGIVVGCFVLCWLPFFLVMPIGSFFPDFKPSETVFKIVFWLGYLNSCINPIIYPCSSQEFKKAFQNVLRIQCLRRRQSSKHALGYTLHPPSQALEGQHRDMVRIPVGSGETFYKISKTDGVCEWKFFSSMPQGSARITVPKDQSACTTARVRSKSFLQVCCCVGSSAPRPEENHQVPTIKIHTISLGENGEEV
The assay can be described thus: DRUGMATRIX: Alpha-1A adrenergic receptor radioligand binding (ligand: prazosin). It counts as cell membranes, Wistar, Submaxillary gland, Membrane. The note with it: Not Active = under 50% inhibition at 10 µM; for Ki: read-out: Ki.

Assay [4] has as its target T4, C-X-C chemokine receptor type 1 (Homo sapiens, UniProt P25024). Note: in other assays of this panel Not Active means under 50% inhibition at 10 µM.
T4 sequence (P25024 whole entry): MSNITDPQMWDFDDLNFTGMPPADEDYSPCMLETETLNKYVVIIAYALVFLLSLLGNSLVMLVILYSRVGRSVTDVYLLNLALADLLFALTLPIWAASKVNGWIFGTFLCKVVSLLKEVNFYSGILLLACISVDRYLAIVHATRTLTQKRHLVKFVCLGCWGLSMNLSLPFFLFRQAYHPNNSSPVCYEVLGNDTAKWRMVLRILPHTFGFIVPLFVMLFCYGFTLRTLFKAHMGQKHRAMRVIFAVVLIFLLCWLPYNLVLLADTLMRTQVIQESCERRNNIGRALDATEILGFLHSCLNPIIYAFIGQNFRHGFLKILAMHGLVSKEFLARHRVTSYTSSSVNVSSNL

A short description of assay [5]: DRUGMATRIX: Purinergic P2X radioligand binding (ligand: [3H] alpha, beta-Methylene-ATP). In kind it is cell membranes, Oryctolagus cuniculus, New Zealand albino, Urinary bladder, Membrane. The note with it: Not Active = under 50% inhibition at 10 µM.

Experimental findings from ChEMBL document CHEMBL1909046, “DrugMatrix in vitro pharmacology data” are described below.

Turning to `COc1cc(N)nc2[nH]c(-c3ccc(F)cc3)c(-c3ccncc3)c12`, the IC50 entry in assay [1], in assay [2], in assay [3], in assay [4] and in assay [5] was “Not Active” throughout. The Ki result in assay [5] is “Not Active”.
Regarding `CNS(=O)(=O)Cc1ccc2[nH]cc(CCN(C)C)c2c1`, the IC50 entry in assay [1], in assay [2], in assay [3], in assay [4] and in assay [5] was “Not Active” in each case. In assay [5], the Ki result was “Not Active”.
`CCCc1nn(C)c2c(=O)[nH]c(-c3cc(S(=O)(=O)N4CCN(C)CC4)ccc3OCC)nc12`: the IC50 result in assay [1], in assay [2], in assay [3], in assay [4] and in assay [5] was “Not Active” throughout. In assay [5], the Ki entry was “Not Active”.
`COc1ccc(/C=C/C(=O)Nc2ccccc2C(=O)O)cc1OC`: the IC50 entry in assay [1], in assay [2], in assay [3], in assay [4] and in assay [5] was “Not Active” throughout. In assay [5], the Ki result is recorded as “Not Active”.
For `CCOC(N)=O`, the IC50 entry in assay [1], in assay [2], in assay [3], in assay [4] and in assay [5] was “Not Active” each time. Further, in assay [5], the Ki result is listed as “Not Active”.
On to `CC(=O)Nc1nnc(S(N)(=O)=O)s1` [ACETAZOLAMIDE], for which the IC50 entry in assay [1], in assay [2], in assay [3] and in assay [4] was “Not Active” throughout.
In the case of `O=c1[nH]c2ccccc2n1CCCN1CCC(n2c(=O)[nH]c3cc(Cl)ccc32)CC1` [DOMPERIDONE], the IC50 result in assay [1] is “Not Active”; in assay [2], “Not Active”; in assay [3] (read-out: IC50) it was 285 nM; in assay [4], “Not Active”. For the same compound, the Ki in assay [3] worked out at 116 nM.
Turning to `CC1=C(CC(=O)O)c2cc(F)ccc2/C1=C\c1ccc(S(C)(=O)=O)cc1` [EXISULIND], the IC50 result in assay [1], in assay [2], in assay [3], in assay [4] and in assay [5] was “Not Active” in each case. Also, the Ki entry in assay [5] is reported as “Not Active”.
For `CC(C)OC(=O)C(C)(C)Oc1ccc(C(=O)c2ccc(Cl)cc2)cc1` [FENOFIBRATE], the IC50 entry in assay [1], in assay [2], in assay [3] and in assay [4] was “Not Active” each time.
Take `OCCN1CCN(CCCN2c3ccccc3Sc3ccc(C(F)(F)F)cc32)CC1` [FLUPHENAZINE]: the IC50 result in assay [1] was “Not Active”; in assay [2], “Not Active”; in assay [3] (read-out: IC50) it was 24 nM; in assay [4] it was “Not Active”. In addition, the Ki in assay [3] was found to be 9.58 nM.
As for `CN1C2CCCC1CC(NC(=O)c1nn(C)c3ccccc13)C2` (centres undefined) [GRANISETRON], the IC50 result in assay [1], in assay [2], in assay [3] and in assay [4] was “Not Active” each time.
Turning to `Nc1nc2c(c(=O)[nH]1)N(C=O)C(CNc1ccc(C(=O)N[C@@H](CCC(=O)O)C(=O)O)cc1)CN2` (some centres undefined) [LEUCOVORIN], the IC50 result in assay [1], in assay [2], in assay [3], in assay [4] and in assay [5] was “Not Active” each time. The Ki entry in assay [5] is reported as “Not Active”.
With `C[C@@H](O)[C@H]1C(=O)N2C(C(=O)O)=C(S[C@@H]3CN[C@H](C(=O)N(C)C)C3)[C@H](C)[C@H]12` [MEROPENEM], the IC50 entry in assay [1], in assay [2], in assay [3], in assay [4] and in assay [5] was “Not Active” throughout. Also, in assay [5], the Ki entry is listed as “Not Active”.
On to `CC[C@@H](CO)NC(=O)[C@@H]1C=C2c3cccc4c3c(cn4C)C[C@H]2N(C)C1` [METHYSERGIDE], for which the IC50 entry in assay [1], in assay [2], in assay [3] and in assay [4] was “Not Active” each time.
As to `CCN(CC)CC#CCOC(=O)C(O)(c1ccccc1)C1CCCCC1` (centres undefined) [OXYBUTYNIN], the IC50 entry in assay [1], in assay [2], in assay [3] and in assay [4] was “Not Active” in each case.
Regarding `O=P(O)(O)C(O)(Cc1cccnc1)P(=O)(O)O` [RISEDRONIC ACID], the IC50 entry in assay [1], in assay [2], in assay [3], in assay [4] and in assay [5] was “Not Active” in each case. Also, the Ki entry in assay [5] was “Not Active”.
`CN(CCOc1ccc(CC2SC(=O)NC2=O)cc1)c1ccccn1` (centres undefined) [ROSIGLITAZONE]: the IC50 entry in assay [1], in assay [2], in assay [3], in assay [4] and in assay [5] was “Not Active” throughout. For the same compound, the Ki result in assay [5] is given as “Not Active”.
`C=C(C)[C@H]1Cc2c(ccc3c2O[C@@H]2COc4cc(OC)c(OC)cc4[C@@H]2C3=O)O1` [ROTENONE]: the IC50 result in assay [1], in assay [2], in assay [3], in assay [4] and in assay [5] was “Not Active” throughout. The Ki result in assay [5] is recorded as “Not Active”.
With `C#CCN(C)[C@H](C)Cc1ccccc1` [SELEGILINE], the IC50 result in assay [1], in assay [2], in assay [3], in assay [4] and in assay [5] was “Not Active” each time. For the same compound, the Ki result in assay [5] was “Not Active”.
As for `CO[C@H]1C[C@@H]2CC[C@@H](C)[C@@](O)(O2)C(=O)C(=O)N2CCCC[C@H]2C(=O)O[C@H]([C@H](C)C[C@@H]2CC[C@@H](O)[C@H](OC)C2)CC(=O)[C@H](C)/C=C(\C)[C@@H](O)[C@@H](OC)C(=O)[C@H](C)C[C@H](C)/C=C/C=C/C=C/1C` [SIROLIMUS], the IC50 result in assay [1], in assay [2], in assay [3], in assay [4] and in assay [5] was “Not Active” in each case. Further, the Ki result in assay [5] is given as “Not Active”.
On to `CN[C@@H]1[C@H](O)[C@H](NC)[C@H]2O[C@@]3(O)C(=O)C[C@@H](C)O[C@H]3O[C@@H]2[C@H]1O` [SPECTINOMYCIN], for which the IC50 result in assay [1], in assay [2], in assay [3], in assay [4] and in assay [5] was “Not Active” throughout. In assay [5], the Ki result is “Not Active”.
In the case of `O=c1n(CCCN2CCN(c3cccc(Cl)c3)CC2)nc2ccccn12` [TRAZODONE], the IC50 entry in assay [1] was “Not Active”; in assay [2], “Not Active”; in assay [3] (read-out: IC50), 117 nM; in assay [4] it was “Not Active”. The Ki in assay [3] was found to be 47 nM.
